Assay results reported in article PMC6145916, “Interaction of mitochondrial fission factor with dynamin related protein 1 governs physiological mitochondrial function in vivo” (Scientific Reports, 2018).
Where no end group is shown, it is not given here.

Key:
[1] = system: fission and fusion proteins; assay: Expression of fission and fusion proteins, mitochondrial content and mitophagy in brain of wild-type mice; type: in vivo, mouse; conditions: 3 mg/Kg/day, subcutaneous osmotic pump, 8 weeks, WT mice
Procedure: Five-week old R6/2 HD mice and their wild-type littermates (a total of 60 mice) were implanted subcutaneously with a 28-d Alzet osmotic pump with either P259-TAT or TAT control peptide (15 mice per group) to be delivered continuously at a rate of 3 mg/Kg/day, as previously described. All mice were implanted twice for a total of an 8-week treatment. 20 of the WT mice were implanted 3 times for a total of a 12-week treatment at 3 mg/Kg/day. All the experiments were in accordance with protocols approved by the Institutional Animal Care and Use Committee of Stanford University and were performed based on the National Institutes of Health Guide for the Care and Use of Laboratory Animals. All methods were carried out in accordance with the relevant guidelines and regulations. […]
membrane in brains of wild-type mice, while not affecting expression levels of other fission and fusion machinery proteins. Total lysate (a,c) and mitochondrial fraction (b) from brain […]
Represented western blots are cropped from full blots shown in the Expanded Western Blots section of the Supplementary Information. […]
Supplementary Figure 4. Principal component analysis of behaviors from wild-type mice treated with P259. a. The top 20% of behaviors collected from wild-type mice treated with 3 […]
ANOVA F- and mutual information scores for each behavior (week designation corresponds to mouse age when the behavior was observed). b. The eigenvector of the first principal component, representing 42% of the variation of the data. […]
finally washed three times with RIPA buffer. Finally, beads were resuspended in 20 µL of Laemmli […]
The effect of peptides on GTPase activity of Drp1 was measured by incubating recombinant Drp1 […]
for 1 hour at 37 °C. GTPase activity was measured using a colorimetric GTPase assay kit (Novus Biologicals, CO, USA) as instructed by the manufacturer. […]

SH-SY5Y cells = assay: Mitochondrial ROS (MitoSox Red), SH-SY5Y; type: cell-based, human; conditions: overnight treatment, normalized to no peptide; 3 independent experiments
Procedure: Represented Western blot is cropped from a full blot shown in the Expanded Western Blots section of the Supplementary Information. […] Hoechst 33342 is shown in blue and Tom20 in green (n = 3, 10 images each). Below, quantification of the form factor (degree of branching) and major axis length (length of mitochondria). At least 6,000 mitochondrial fragments were measured for each condition. Mitochondrial reactive oxygen species (ROS) production (MitoSox Red) (c) and mitochondrial membrane potential (TMRM) (d) after overnight treatment with indicated concentrations of peptide or FCCP. Data are from 3 independent experiments per condition normalized to the average no peptide value. (e) Relative mitochondrial ROS (MitoSox Red) signal in GFP positive cells expressing full-length or alanine-substituted P259 at indicated amino acids after two days of transfection. Values are normalized to a GFP empty vector (n = 3, with 3 replicates). […] Data are mean ± s.e.
Following treatment, cells were washed with treatment media.
The Cy5 filter was used to autofocus on the mitochondria plane. […] MitoROS was calculated as the average MitoSox signal per cell. The mitochondrial membrane potential was calculated as the average TMRM signal in the mitochondrial mask. […]
calculated as the average MitoSox signal per cell. […]

“YGRKKRRQRRRGSGIIQLPEIVVV-NH2 (C-terminus assumed) [P259]” was tested, and the “expression levels of both fission and fusion proteins” value [1] was “no effect”, the mitophagy [1] was “no effect” and the overall mitochondrial content [1] was “no effect”. For the same substance, the “mitochondrial ROS levels” value (SH-SY5Y cells) was “increase in mitochondrial reactive oxygen species (ROS) levels”.
